Results taken from patent publication US7786040B2, “4-cyclopropyl-1,2,3,-thiadiazole compound, agrohorticultural plant disease controlling agent and method of using the same” (Nihon Nohyaku Co., Ltd., priority 2005, dated 2010).

Key:
[1] = test system: powdery mildew fungus (Blumeria graminis); assay: Test Example 1: controlling effect by seed dressing against wheat powdery mildew; assay type: in vivo; settings: 0.15% active ingredient based on weight of dry seeds, inoculated 25 days after sowing, investigated 7 days after inoculation
From the text: (§1) Seeds of wheat (cultivar: chihoku komugi) and a wettable powder prepared according to Formulation Example were placed in a vinyl bag, followed by adding thereto a small volume of water, and they were mixed to conduct seed dressing. On the day after this treatment, the seeds sowed in a plastic pot of 10 cm diameter, and cultivated in a greenhouse. Twenty five days after sowing, the seedlings thus obtained were inoculated with powdery mildew fungus (Blumeria graminis) by sprinkling. Seven days after inoculation, the seedlings were investigated and infection index was estimated according to the criterion shown below, after which the control efficacy (%) was calculated. In this occasion, infection index on the untreated plot was 8.0. As comparative examples, the following compounds described in JP-A-2001-10909 were evaluated. • I: 3′-chloro-4,4′-dimethyl-1,2,3-thiadiazole-5-carboxanilide • II: benzyl 4-isopropyl-1,2,3-thiadiazole-5-carboxylate • III: methyl 4-cyclopropyl-1,2,3-thiadiazole-5-carboxylate • IV: 4-cyclopropyl-1,2,3-thiadiazole-5-carboxylic acid Infection Index • 0: No infection. • 0.5: Lesion area percentage: less than 10% • 1: Lesion area percentage; 10 to less than 20% • 2: Lesion area percentage; 20 to less than 30% • 3: Lesion area percentage; 30 to less than 40% • 4: Lesion area percentage; 40 to less than 50% • 5: Lesion area percentage; 50 to less than 60% • 6: Lesion area percentage; 60 to less than 70% • 7: Lesion area percentage; 70 to less than 80% • 8: Lesion area percentage; 80 to less than 90% • 9: Lesion area percentage; 90 to less than 100% • 10: Lesion area percentage; 100% Control efficacy (%)={1-(infection index on treated plot/infection index on untreated plot)}×100 Rank of Control Efficacy • A: Control efficacy 100-90% • B: Control efficacy 89-80% • C: Control efficacy 79-60% • D: Control efficacy 59-0%

[2] = test system: powdery mildew fungus (Blumeria graminis); assay: Test Example 2: controlling effect by seed dressing against wheat powdery mildew, long-lasting effect; assay type: in vivo; settings: 0.15% active ingredient based on weight of dry seeds, inoculated 50 days after sowing, investigated 7 days after inoculation
From the text: as §1
Seeds of wheat (cultivar: Chihoku Komugi) and a wettable powder prepared according to Formulation Example were placed in a vinyl bag, followed by adding thereto a small volume of water, and they were mixed to conduct seed dressing. On the day after this treatment, the seeds sowed in a plastic pot of 10 cm diameter, and cultivated in a greenhouse. Fifty days after sowing, the seedlings thus obtained were inoculated with powdery mildew fungus (Blumeria graminis) by sprinkling. Seven days after inoculation, the seedlings were investigated and infection index was estimated according to the criterion shown below, after which the control efficacy (%) was calculated. In this occasion, infection index on the untreated plot was 8.0. As comparative examples, the above-described compounds I, II, III and IV were evaluated.

Row | SMILES | Rank of control efficacy [1] | Rank of control efficacy [2]
1 | CCc1cccc(CC)c1NC(=O)c1snnc1C1CC1 [1-152] | B or more | –
2 | CN(Cc1ccccc1)C(=O)c1snnc1C1CC1 [1-82] | B or more | B or more
3 | O=C(NCc1ccc(OCC(F)(F)F)cc1)c1snnc1C1CC1 [1-68] | B or more | B or more
4 | N#Cc1snnc1C1CC1 [3-1, 4-cyclopropyl-1,2,3-thiadiazole-5-carbonitrile] | B or more | B or more
5 | Cc1ccc(NC(=S)c2snnc2C2CC2)cc1Cl [1-143, 3′-chloro-4-cyclopropyl-4′-methyl-1,2,3-thiadiazole-5-thiocarboxamilide] | B or more | B or more
6 | Cc1cccc(C)c1N(C(=O)c1snnc1C1CC1)C(=O)c1snnc1C1CC1 [1-153] | B or more | –
7 | O=C(Nc1nc2ccccc2s1)c1snnc1C1CC1 [1-111] | B or more | B or more
8 | COc1ccc(NC(=O)c2snnc2C2CC2)c(C)c1 [1-156] | B or more | B or more
9 | O=C(NCc1ccc(Cl)cc1)c1snnc1C1CC1 [1-56] | B or more | –
10 | CN(C)c1ccncc1.COc1ccc2nc(NC(=O)c3snnc3C3CC3)sc2c1 [1-181] | B or more | –
11 | COc1ccc2nc(NC(=O)c3snnc3C3CC3)sc2c1 [1-180] | B or more | –
12 | O=C(Nc1nc2ccc(Cl)cc2s1)c1snnc1C1CC1 [1-178] | B or more | B or more
13 | Cc1ccc(COC(=O)c2snnc2C2CC2)cc1 [1-15] | B or more | B or more
14 | COc1ccc(OC)c(CNC(=O)c2snnc2C2CC2)c1 [1-167] | B or more | B or more
15 | O=C(Nc1nc(-c2ccccc2)cs1)c1snnc1C1CC1 [1-170] | B or more | B or more
16 | O=C(NOCc1ccccc1)c1snnc1C1CC1 [1-113] | B or more | B or more
17 | COc1ccc(COC(=O)c2snnc2C2CC2)cc1 [1-18] | B or more | B or more
18 | O=c1oc(-c2snnc2C2CC2)nc2ccccc12 [2-1, 2-(4-cyclopropyl-1,2,3-thiadiazol-5-yl)-4-H-3,1-benzoxazin-4-one] | B or more | –
19 | O=C(NS(=O)(=O)c1ccc(Cl)cc1)c1snnc1C1CC1 [1-157] | B or more | –
20 | O=C(NCc1ccc(Oc2ccc(C(F)(F)F)cc2)cc1)c1snnc1C1CC1 [1-66] | B or more | –
21 | CCc1cccc(CC)c1N(C(=O)c1snnc1C1CC1)C(=O)c1snnc1C1CC1 [1-154] | B or more | –

Row | SMILES | Rank of control efficacy [1] | Rank of control efficacy [2]
22 | COc1ccc(C(C)OC(=O)c2snnc2C2CC2)cc1 (stereo not drawn) [1-50] | B or more | B or more
23 | Cc1ccc(C(C)OC(=O)c2snnc2C2CC2)cc1 (stereo not drawn) [1-47] | B or more | –
24 | CNC(=O)c1ccccc1NC(=O)c1snnc1C1CC1 [1-189] | B or more | B or more
25 | COc1ccc(NC(=S)c2snnc2C2CC2)c(OC)c1 [1-144] | B or more | B or more
26 | COC(c1ccc(NC(=O)c2snnc2C2CC2)cc1OC(C)C)(C(F)(F)F)C(F)(F)F [1-103] | B or more | –
27 | Cc1ccc(CNC(=O)c2snnc2C2CC2)c(C)c1 [1-162] | B or more | –
28 | O=C(OCc1ccccc1Cl)c1snnc1C1CC1 [1-10, (2-chlorobenzyl)4-cyclopropyl-1,2,3-thiadiazole-5-carboxylate] | B or more | B or more
29 | O=C(NS(=O)(=O)c1ccccc1Cl)c1snnc1C1CC1 [1-158] | B or more | –
30 | COc1cccc(CNC(=O)c2snnc2C2CC2)c1OC [1-165] | B or more | B or more
31 | O=C(NS(=O)(=O)C(F)(F)F)c1snnc1C1CC1 [1-122] | B or more | –
32 | COc1ccccc1COC(=O)c1snnc1C1CC1 [1-16] | B or more | B or more
33 | Cc1ccccc1COC(=O)c1snnc1C1CC1 [1-13] | B or more | B or more
34 | O=C(OCc1ccc(Cl)cc1Cl)c1snnc1C1CC1 [1-26] | B or more | –
35 | COc1ccc(OC)c(NC(=O)c2snnc2C2CC2)c1 [1-155] | B or more | B or more
36 | Cc1nc(-c2ccccc2NC(=O)c2snnc2C2CC2)no1 [1-182] | B or more | –
37 | O=C(NCc1ccc(Cl)cc1Cl)c1snnc1C1CC1 [1-164] | B or more | –
38 | CS(=O)(=O)NC(=O)c1snnc1C1CC1 [1-120] | B or more | –
39 | CC(C)(C)OC(=O)c1ccc(COC(=O)c2snnc2C2CC2)cc1 [1-25] | B or more | –
40 | Cc1ccc(Oc2ccc(CNC(=O)c3snnc3C3CC3)cc2)cc1 [1-65] | B or more | –
41 | CC(C)c1nnsc1C(=O)OCc1ccccc1 [II, benzyl 4-isopropyl-1,2,3-thiadiazole-5-carboxylate, reference compound] | C (Control efficacy 79-60%) | –
42 | O=C(NCc1cnc(Cl)s1)c1snnc1C1CC1 [1-185] | B or more | –

Row | SMILES | Rank of control efficacy [1] | Rank of control efficacy [2]
43 | Cc1ccc(CNC(=O)c2snnc2C2CC2)cc1 [1-59] | B or more | –
44 | Cc1ccc(C)c(CNC(=O)c2snnc2C2CC2)c1 [1-163] | B or more | –
45 | COc1ccc(NC(=O)c2snnc2C2CC2)cc1OC [1-97] | B or more | B or more
46 | Cc1cc(C)nc(NC(=O)c2snnc2C2CC2)n1 [1-177] | B or more | B or more
47 | COc1ccc(CNC(=O)c2snnc2C2CC2)cc1 [1-62] | B or more | B or more
48 | Cc1nc(-c2cccnc2NC(=O)c2snnc2C2CC2)no1 [1-183] | B or more | B or more
49 | C=CCNC(=O)c1snnc1C1CC1 [1-145] | B or more | B or more
50 | COc1cc(OC)nc(NC(=O)c2snnc2C2CC2)n1 [1-175] | B or more | B or more
51 | COc1cc(C)nc(NC(=O)c2snnc2C2CC2)n1 [1-176] | B or more | B or more
52 | O=C(Nc1cccc2nnsc12)c1snnc1C1CC1 [1-184] | B or more | B or more
53 | CN(C)c1ccncc1.O=C(Nc1nc2ccc(Cl)cc2s1)c1snnc1C1CC1 [1-179] | B or more | B or more
54 | CSc1ccccc1NC(=O)c1snnc1C1CC1 [1-190] | B or more | B or more
55 | CC(OC(=O)c1snnc1C1CC1)c1ccccc1 (stereo not drawn) [1-41] | B or more | B or more
56 | CCOC(=O)c1sc(NC(=O)c2snnc2C2CC2)nc1C [1-173] | B or more | B or more
57 | CCOC(=O)c1csc(NC(=O)c2snnc2C2CC2)n1 [1-169] | B or more | B or more
58 | COc1cc(CNC(=O)c2snnc2C2CC2)cc(OC)c1 [1-168] | B or more | –
59 | Cc1cccc(C)c1NC(=O)c1snnc1C1CC1 [1-151] | B or more | –
60 | O=C(Nc1nnc(C(F)(F)F)s1)c1snnc1C1CC1 [1-112] | B or more | B or more
61 | Cc1nsc(NC(=O)c2snnc2C2CC2)c1Br [1-174] | B or more | –
62 | O=C(Nc1cccc2c1C(=O)OC2)c1snnc1C1CC1 [1-186] | B or more | –
